Experimental data from patent US20180326080A1, “POLYMER-BASED THERAPEUTICS FOR INDUCTIVE BROWNING OF FAT” (Purdue Research Foundation, priority 2015, published 2018).

Experiments:
[1] = tested on: cultured white adipocytes; assay: Notch inhibition and brown fat gene expression in cultured white adipocytes; assay type: cell-based; conditions: vs DMSO
Description: (§1) Pharmacological inhibition of Notch signaling induces browning of white adipocytes during in vitro culture. Notch signaling is inhibited in cultured white adipocytes with the γ-secretase inhibitor DAPT (N—[N-(3,5-difluorophenacetyl)-1-alanyl]-S-phenylglycine t-butyl ester).

[2] = tested on: cultured white adipocytes; assay: Oxygen consumption rate of adipocytes treated with DAPT; assay type: cell-based; conditions: vs adipocytes treated with DMSO
Description: as §1

[3] = tested on: diet induced obese (DIO) mouse model; assay: Local injection of DBZ-NPs into inguinal WAT of diet-induced obese mice; assay type: in vivo; conditions: in solution and nontargeted NP forms, vs nontreated obese mice
Experimental: All procedures regarding animal maintenance and experimental use were performed according to the regulation presented by Purdue University's Animal Care and Use Committee. 10-week-old male die-induced obese (DIO) mice with the C57BL/6 background were purchased from Taconic and housed under normal condition at Purdue University. High-fat diet (Research Diets #D12492, 60% fat) was used to induce and maintain obesity in the mice. Mice with average body weight of 36 g at 14 weeks started to receive nanoparticle treatment. […]
For GTT, mice were intraperitoneally injected with 100 mg/ml D-glucose (2 g kg-1 body weight) after 16 h fasting. Blood was drawn from tails and glucose levels were measured by a glucometer (Accu-Check Active, Roche). […] Glucose concentrations were measured in the blood drawn from tails. […]
Serum levels of free fatty acids, glucose, cholesterol, and triglycerides from fasted DIO mice after treatment of nanoparticles for 5 weeks were examined by standard kits from Randox Laboratories. The insulin level in the serum was measured by ELISA according to the manufacturer's instructions (ALPCO). […]
Total RNA was extracted from cells or tissues through Trizol (Life Technologies) in accordance with the manufacture's protocol. […] The quantitative PCR was performed on the Roche Light Cycler 96 PCR System (Roche). […]

| SMILES | Notch signaling (mRNA levels of Notch targets) [1] | expression of brown fat specific genes Ucp1, Cidea, Prdm16 and Ppargc1a [1] | oxygen consumption rate (OCR) [2] | body weight gain [3] |
| --- | --- | --- | --- | --- |
| C[C@H](NC(=O)Cc1cc(F)cc(F)c1)C(=O)N[C@H](C(=O)OC(C)(C)C)c1ccccc1 [DAPT, (N—[N-(3,5-difluorophenacetyl)-1-alanyl]-S-phenylglycinet-butyl ester)] | inhibited Notch signaling | upregulated | higher |  |
| CN(CCOc1ccc(CC2SC(=O)NC2=O)cc1)c1ccccn1 (stereo not shown) [Rosi] |  |  |  | no difference in body weight gain |
